# Calls of active or inactive are those of the source. No cut-off for these calls is given here.
# How the values were obtained:
# Spodoptera frugiperda [1] = test: Antifeedant activity against larvae of Spodoptera frugiperda (fall armyworm) assessed reduction of adult emergence at 35 ppm after 21 days relative to control; type: functional; set-up: scale not given: the % may be the effect or the level left
# Spodoptera frugiperda [2] = test: Insecticidal activity against larvae of Spodoptera frugiperda (fall armyworm) assessed inhibition of ecdysis at 25 ug/ml, po after 21 days; type: functional, organism-based
# Spodoptera frugiperda [3] = test: Antifeedant activity against larvae of Spodoptera frugiperda (fall armyworm) assessed reduction of pupation at 35 ppm after 21 days relative to control; type: functional; set-up: scale not given: the % may be the effect or the level left
# Spodoptera frugiperda [4] = test: Antifeedant activity against larvae of Spodoptera frugiperda (fall armyworm) assessed reduction of weight gain at 10 ppm after 21 days relative to control; type: functional; set-up: scale not given: the % may be the effect or the level left
# Spodoptera frugiperda [5] = test: Insecticidal activity against larvae of Spodoptera frugiperda (fall armyworm) assessed growth index at 10 ppm; type: functional
# Drosophila melanogaster [6] = test: Antifeedant activity against larvae of Drosophila melanogaster at 100 ug/ml after 12 to 24 hr; type: functional
# Spodoptera frugiperda [7] = test: Insecticidal activity against larvae of Spodoptera frugiperda (fall armyworm) assessed growth index at 35 ppm relative to control; type: functional
# Drosophila melanogaster [8] = test: Insecticidal activity against larvae of Drosophila melanogaster assessed as mortality at 20 ug/ml after 72 hr by not choice test; type: functional
# Drosophila melanogaster [9] = test: Insecticidal activity against larvae of Drosophila melanogaster assessed as mortality after 72 hr by not choice test; type: functional
# Spodoptera frugiperda [10] = test: Insecticidal activity against larvae of Spodoptera frugiperda (fall armyworm) assessed growth index at 25 ppm relative to control; type: functional
# Spodoptera frugiperda [11] = test: Antifeedant activity against larvae of Spodoptera frugiperda (fall armyworm) assessed reduction of weight gain at 50 ppm after 21 days relative to control; type: functional; set-up: scale not given: the % may be the effect or the level left
# Spodoptera frugiperda [12] = test: Antifeedant activity against larvae of Spodoptera frugiperda (fall armyworm) assessed reduction of pupation at 20 ppm after 21 days relative to control; type: functional; set-up: scale not given: the % may be the effect or the level left
# Spodoptera frugiperda [13] = test: Insecticidal activity against larvae of Spodoptera frugiperda (fall armyworm) assessed induction of apolysis at 25 ug/ml, po after 21 days; type: functional, organism-based
# Drosophila melanogaster [14] = test: Insecticidal activity against larvae of Drosophila melanogaster assessed as mortality at 50 ug/ml after 72 hr by not choice test; type: functional
# Drosophila melanogaster [15] = test: Antifeedant activity against larvae of Drosophila melanogaster at 25 ug/ml after 12 to 24 hr; type: functional
# Spodoptera frugiperda [16] = test: Insecticidal activity against larvae of Spodoptera frugiperda (fall armyworm) assessed induction of prothetely appearance of precocious pupal structures in larvae at 50 ug/ml, po after 48 to 72 hr; type: functional, organism-based
# Spodoptera frugiperda [17] = test: Antifeedant activity against larvae of Spodoptera frugiperda (fall armyworm) assessed reduction of weight gain at 20 ppm after 21 days relative to control; type: functional; set-up: scale not given: the % may be the effect or the level left
# Spodoptera frugiperda [18] = test: Antifeedant activity against larvae of Spodoptera frugiperda (fall armyworm) at 100 ug/ml after 12 to 24 hr; type: functional
# Spodoptera frugiperda [19] = test: Insecticidal activity against larvae of Spodoptera frugiperda (fall armyworm) assessed mortality at 20 ppm after 21 days relative to control; type: functional; settings: 504 h
# Spodoptera frugiperda [20] = test: Antifeedant activity against larvae of Spodoptera frugiperda (fall armyworm) assessed reduction of adult emergence at 20 ppm after 21 days relative to control; type: functional; set-up: scale not given: the % may be the effect or the level left
# Spodoptera frugiperda [21] = test: Antifeedant activity against larvae of Spodoptera frugiperda (fall armyworm) assessed reduction of adult emergence at 10 ppm after 21 days relative to control; type: functional; set-up: scale not given: the % may be the effect or the level left
# Spodoptera frugiperda [22] = test: Insecticidal activity against larvae of Spodoptera frugiperda (fall armyworm) assessed growth index at 50 ppm relative to control; type: functional
# Spodoptera frugiperda [23] = test: Insecticidal activity against larvae of Spodoptera frugiperda (fall armyworm) assessed growth index at 10 ppm relative to control; type: functional
# Spodoptera frugiperda [24] = test: Antifeedant activity against larvae of Spodoptera frugiperda (fall armyworm) assessed reduction of adult emergence at 50 ppm after 21 days relative to control; type: functional; set-up: scale not given: the % may be the effect or the level left
# Drosophila melanogaster [25] = test: Antifeedant activity against larvae of Drosophila melanogaster at 10 ug/ml after 12 to 24 hr; type: functional
# Spodoptera frugiperda [26] = test: Antifeedant activity against larvae of Spodoptera frugiperda (fall armyworm) at 10 ug/ml after 12 to 24 hr; type: functional
# Spodoptera frugiperda [27] = test: Antifeedant activity against larvae of Spodoptera frugiperda (fall armyworm) assessed reduction of pupation at 10 ppm after 21 days relative to control; type: functional; set-up: scale not given: the % may be the effect or the level left
# Spodoptera frugiperda [28] = test: Insecticidal activity against larvae of Spodoptera frugiperda (fall armyworm) assessed mortality at 50 ppm after 21 days relative to control; type: functional; settings: 504 h
# Drosophila melanogaster [29] = test: Insecticidal activity against larvae of Drosophila melanogaster assessed as mortality at 100 ug/ml after 72 hr by not choice test; type: functional
# Spodoptera frugiperda [30] = test: Antifeedant activity against larvae of Spodoptera frugiperda (fall armyworm) at 5 ug/ml after 12 to 24 hr; type: functional
# Spodoptera frugiperda [31] = test: Antifeedant activity against larvae of Spodoptera frugiperda (fall armyworm) at 25 ug/ml after 12 to 24 hr; type: functional
# Spodoptera frugiperda [32] = test: Insecticidal activity against larvae of Spodoptera frugiperda (fall armyworm) assessed growth index at 50 ppm; type: functional
# Spodoptera frugiperda [33] = test: Insecticidal activity against larvae of Spodoptera frugiperda (fall armyworm) assessed growth index at 25 ppm; type: functional
# Spodoptera frugiperda [34] = test: Insecticidal activity against larvae of Spodoptera frugiperda (fall armyworm) assessed mortality at 35 ppm after 21 days relative to control; type: functional; settings: 504 h
# Spodoptera frugiperda [35] = test: Antifeedant activity against larvae of Spodoptera frugiperda (fall armyworm) assessed reduction of pupation at 50 ppm after 21 days relative to control; type: functional; set-up: scale not given: the % may be the effect or the level left
# Spodoptera frugiperda [36] = test: Insecticidal activity against larvae of Spodoptera frugiperda (fall armyworm) assessed growth index at 35 ppm; type: functional
# Spodoptera frugiperda [37] = test: Antifeedant activity against larvae of Spodoptera frugiperda (fall armyworm) assessed reduction of weight gain at 35 ppm after 21 days relative to control; type: functional; set-up: scale not given: the % may be the effect or the level left
# Drosophila melanogaster [38] = test: Antifeedant activity against larvae of Drosophila melanogaster at 50 ug/ml after 12 to 24 hr; type: functional
# Spodoptera frugiperda [39] = test: Insecticidal activity against larvae of Spodoptera frugiperda (fall armyworm) assessed mortality at 10 ppm after 21 days relative to control; type: functional; settings: 504 h
# Spodoptera frugiperda [40] = test: Antifeedant activity against larvae of Spodoptera frugiperda (fall armyworm) at 50 ug/ml after 12 to 24 hr; type: functional
# Spodoptera frugiperda [41] = test: Insecticidal activity against larvae of Spodoptera frugiperda (fall armyworm) assessed mortality at 25 ppm after 21 days relative to control; type: functional; settings: 504 h
# Spodoptera frugiperda [42] = test: Antifeedant activity against larvae of Spodoptera frugiperda (fall armyworm) assessed reduction of adult emergence at 25 ppm after 21 days relative to control; type: functional; set-up: scale not given: the % may be the effect or the level left
# Spodoptera frugiperda [43] = test: Antifeedant activity against larvae of Spodoptera frugiperda (fall armyworm) assessed reduction of weight gain at 25 ppm after 21 days relative to control; type: functional; set-up: scale not given: the % may be the effect or the level left
# Spodoptera frugiperda [44] = test: Antifeedant activity against larvae of Spodoptera frugiperda (fall armyworm) assessed reduction of pupation at 25 ppm after 21 days relative to control; type: functional; set-up: scale not given: the % may be the effect or the level left
SMILES,Activity (Spodoptera frugiperda [4]) [%],Growth_index (Spodoptera frugiperda [5]),AFI (Drosophila melanogaster [6]) [%],mortality at 20 µg/mL (Drosophila melanogaster [8]) [%],LC50 (Drosophila melanogaster [9]) [µg/mL],Ratio (Spodoptera frugiperda [10]),Activity (Spodoptera frugiperda [11]) [%],mortality at 50 µg/mL (Drosophila melanogaster [14]) [%],AFI (Drosophila melanogaster [15]) [%],AFI (Spodoptera frugiperda [18]) [%],Activity (Spodoptera frugiperda [21]) [%],Ratio (Spodoptera frugiperda [22]),Ratio (Spodoptera frugiperda [23]),Activity (Spodoptera frugiperda [24]) [%],AFI (Drosophila melanogaster [25]) [%],AFI (Spodoptera frugiperda [26]) [%],Activity (Spodoptera frugiperda [27]) [%],mortality at 50 ppm (Spodoptera frugiperda [28]) [%],mortality at 100 µg/mL (Drosophila melanogaster [29]) [%],AFI (Spodoptera frugiperda [30]) [%],other results
C[C@@H]1O[C@@H](O[C@@H]2[C@@H](O)[C@H](OCCc3ccc(O)c(O)c3)O[C@H](CO)[C@H]2OC(=O)/C=C/c2ccc(O)c(O)c2)[C@H](O)[C@H](O)[C@H]1O [ACETOSIDE],2.15,0.66,100,92,8.08,0.45,0,100,100,100,0,0.1,0.67,0,89,88.2,3.1,100,100,78.9,Activity (Spodoptera frugiperda [1]): 0%; inhibition (Spodoptera frugiperda [2]): Active; Activity (Spodoptera frugiperda [3]): 0%; Ratio (Spodoptera frugiperda [7]): 0.15; Activity (Spodoptera frugiperda [12]): 3.1%; Activity (Spodoptera frugiperda [13]): Active; Activity (Spodoptera frugiperda [16]): Active; Activity (Spodoptera frugiperda [17]): 1.35%; mortality at 20 ppm (Spodoptera frugiperda [19]): 100%; Activity (Spodoptera frugiperda [20]): 0%; AFI (Spodoptera frugiperda [31]): 96.7%; Growth_index (Spodoptera frugiperda [32]): 0.07; Growth_index (Spodoptera frugiperda [33]): 0.41; mortality at 35 ppm (Spodoptera frugiperda [34]): 100%; Activity (Spodoptera frugiperda [35]): 0%; Growth_index (Spodoptera frugiperda [36]): 0.09; Activity (Spodoptera frugiperda [37]): 0%; AFI (Drosophila melanogaster [38]): 100%; mortality at 10 ppm (Spodoptera frugiperda [39]): 81.3%; AFI (Spodoptera frugiperda [40]): 100%
CC(=O)O[C@@H]1C[C@H]2C(C)(C)C(=O)C=C[C@]2(C)[C@H]2CC[C@@]3(C)[C@H](c4ccoc4)OC(=O)[C@H]4O[C@]43[C@@]21C [GEDUNIN],2.05,0.77,100,87.1,11.9,0.55,0,100,98,100,15,0.11,0.71,0,81,74.5,54.2,100,100,68.8,mortality at 25 ppm (Spodoptera frugiperda [41]): 8.4%; Activity (Spodoptera frugiperda [42]): 13%; Activity (Spodoptera frugiperda [43]): 1.35%; Activity (Spodoptera frugiperda [44]): 41.7%; AFI (Spodoptera frugiperda [31]): 85.6%; Growth_index (Spodoptera frugiperda [32]): 0.1; Growth_index (Spodoptera frugiperda [33]): 0.51; Activity (Spodoptera frugiperda [35]): 0%; AFI (Drosophila melanogaster [38]): 100%; mortality at 10 ppm (Spodoptera frugiperda [39]): 11.6%; AFI (Spodoptera frugiperda [40]): 89.9%
